From patent US20220295782A1, “METHOD FOR PRODUCING FROZEN BODY OF THREE-DIMENSIONAL TISSUE AGGREGATE OF RETINAL PIGMENT EPITHELIAL CELLS” (NICHIREI BIOSCIENCE INC., priority 2019, published 2022)
Read-outs that look alike come from different tables or passages of the source.

System: RPE cells
Protocol: RPE cells (manufactured by Lonza K.K., 00194987) were seeded on a 96-well plate (Falcon, 353072) at 3.3×10^4 cells/well, and cultured in a maintenance medium (350 mL of DMEM (Sigma, D6046), 150 mL of F12 HAM (Sigma, N6658), 10 mL of B27 (Invitrogen, 17504-044), 5 mL of 200 mM L-glutamine (Sigma, G7513), 10 ng/mL of bFGF (Wako, 060-04543), […] of SB431542 hydrate (Sigma, S4317)) until the cells reached confluent. The cultured cells were washed with PBS(−) at room temperature, and then exposed to a pretreatment solution for 10 minutes or 30 minutes.
As the pretreatment solutions, solutions having EG concentrations of 10 (v/v) %, 12.5 (v/v) %, 15 (v/v) %, 17.5 (v/v) % and 20 (v/v) % were used. As the solvent of the pretreatment solution, a Dulbecco's modified Eagle's medium (DMEM) supplemented with 2 mM L-glutamine or PBS(−) was used.

## OCCO [EG, ethylene glycol]
0 hours of culture time, EG 10-20 (v/v) % in DMEM supplemented with 2 mM L-glutamine, exposure 10 minutes
  initial toxicity (metabolic activity of cells, MTS assay): increased in a concentration-dependent manner from the EG concentration of 12.5 (v/v) %
30-minute exposure versus 10-minute exposure
  time to recovery of metabolic activity: longer time to recovery is required
30 minutes of exposure time to the pretreatment solution
  cytotoxicity (MTS assay): same tendency of cytotoxicity as in the results of FIG. 1
PBS(-) used as the solvent
  cytotoxicity (MTS assay): the same tendency as when the DMEM medium supplemented with glutamine was used
Up to EG concentration of 17.5 (v/v) %, DMEM with glutamine, exposure 10 minutes
  culture time in which recovery of metabolic activity is possible: about 24 hours
